Test results from patent publication US5658913A, “Chemopreventive compounds and a preparation method and use thereof” (Kim; Nak Doo, priority 1993, dated 1997).

Assays:
[1] = test system: enzymes involved in phase II reactions; conditions: literature; cited from earlier work
cancers = conditions: literature; cited from earlier work
aniline hydroxylase = test: Aniline hydroxylase activity in combination with INAH (Experimental Example 2(2)); format: in vivo, Sprague-Dawley rat; conditions: for Aniline hydroxylase, Amount: INAH 200 mg/kg i.p., alone or plus compound 200 mg/kg; for Aniline hydroxylase, Activity: INAH alone = 100%; for Aniline hydroxylase, Activity / inhibition of expression of aniline hydroxylase induced by INAH: INAH plus compound, each 200 mg/kg i.p.; for inhibition of expression of aniline hydroxylase induced by INAH: in words
Method: Thus, 1 mg of microsomes and 5 mM aniline were added to 0.6 ml of 0.1M potassium phosphate buffer(pH 6.8) to make the total volume of 0.9 ml. 1 mM NADPH was added to make the total volume of 1.0 ml and the resulting mixture was reacted at 37° C. After 10 minutes, 20% trichloroacetic acid was added to stop the reaction and the reaction mixture was centrifuged. To 1 ml of supernatant were added 0.1 ml of 5% phenol and 0.1 ml of 2.5N sodium carbonate, dissolved in 0.1N NaOH. The mixture was allowed to stand for 30 minutes to develop a color and the absorbance at 630 nm was measured at once. The enzyme activity was expressed in terms of mole concentration of 4-aminophenol, the product of reaction for 1 minute.
(§1) In order to examine the effect of the compound of the present invention on the activity of the enzymes involved in phase I reaction when administered in combination with INAH, the experiments were carried out as follows:
(§2) Eight groups of Sprague-Dawley rat weighing 190±30 g were intraperitoneally administered with INAH(Group 1), or INAH plus the compounds of Examples 2 to 8(Groups 2 to 8), each in a dose of 200 mg/kg. The inventive compounds and INAH were diluted with corn oil and PBS respectively, and the test compounds were administered just after administering INAH.
(§3) The changes in the activity of p-nitrophenol hydroxylase and aniline hydroxylase were measured by following the same procedure as in Experimental Example 1(2-1) and (2-2). The activity of enzymes was determined by considering the activity of enzyme when INAH alone was administered as 100%.

[2] = test system: Glutathion S-transferase (GST); test: GST activity, administered alone or in combination with INAH (Experimental Example 4(2)); format: in vivo, Sprague-Dawley rat; conditions: for induction of expression of glutathione S-transferase when INAH is administered: in words; for increase of expression of glutathione S-transferase: Table 3
Method: Thus, to 25 μg(0.1 ml) of cytosol protein were added 0.1 mM […] and 1.0 mM glutathione as substrates, and 0.1M potassium phosphate were added to make the total volume of 1.0 ml(pH 6.4). The resulting mixture was allowed to stand at room temperature for 2 minutes and measured for its absorbance at 340 nm at intervals of 15 seconds during the period of 1 minute. As a reference, a cytosol protein denatured by heating was used. The activity of GST was calculated by measuring the change of absorbance for the period of 1 minute and employing the extinction coefficient of 9.6 mM^-1 cm^-1.
In order to examine the effect of the compound of the present invention on the activity of the enzymes involved in phase II reaction when administered alone or in combination with INAH, the experiments were carried out as follows:
Sixteen groups of Sprague-Dawley rat weighing 190±30 g were intraperitoneally administered with corn oil(Group 1), compounds of Examples 2 to 8(Groups 2 to 8), INAH(Group 9), or INAH plus the compounds of Examples 2 to 8(Groups 10 to 16), each in a dose of 200 mg/kg. The inventive compounds and INAH were diluted with corn oil, and the test compounds were administered just after administering INAH.
The change in the activity of GST was measured by following the same procedure as in Experimental Example 3(2). The activity of enzyme was determined by considering the activity of enzyme when corn oil or INAH alone was administered as 100%.

[3] = test system: p-nitrophenol hydroxylase; test: p-Nitrophenol hydroxylase activity in combination with INAH (Experimental Example 2(2)); format: in vivo, Sprague-Dawley rat; conditions: for p-Nitrophenol hydrolase, Amount: INAH 200 mg/kg i.p., alone or plus compound 200 mg/kg; for inhibition of expression of p-nitrophenol hydroxylase induced by INAH: INAH plus compound, each 200 mg/kg i.p., in words
[4] = test system: p-nitrophenol hydroxylase; test: as above; format: in vivo, Sprague-Dawley rat; conditions: INAH alone = 100%; INAH plus compound, each 200 mg/kg i.p.
Method: Thus, 1 mg of microsomes and 1mM p-nitrophenol were added to 0.6 ml of 0.1M potassium phosphate buffer(pH 6.8) to make the total volume of 0.9 ml. The resulting mixture was preliminarily reacted in a 37° C. incubator for 2 minutes and started to react while adding 1 mM NADPH(0.1 ml). After 3 minutes, 0.5 ml of 0.6N perchloric acid was added to develop a color and the absorbance at 546 nm was measured at once. The enzyme activity was expressed in terms of mole concentration of 4-nitrocatechol, the product of reaction for 1 minute.
as §1, §2, §3

P450 2E1 = test: Immunoblot analysis of P-450 2E1 expression when administered together with INAH (Experimental Example 2(1)); format: in vivo, Sprague-Dawley rat; conditions: 200 mg/kg i.p. plus INAH 200 mg/kg; FIG. 5
Method: To the first group as a control group, corn oil was administered intraperitoneally in an amount of 0.1 ml/200 g body weight. The second group was administered intraperitoneally INAH diluted with PBS in a dose of 200 mg/kg body weight. […] The hepatic microsomes were separated and subjected to Western blot analysis on SDS-PAGE by following the same procedure as in the above Experimental Example 1 (1).

cytochrome P-450 2E1 = conditions: cited from earlier work; for effect on cytochrome P-450 2E1 expression: literature / inventors' submitted paper
[5] = INAH alone or INAH plus compound, each 200 mg/kg i.p.
[6] = INAH plus compound, each 200 mg/kg i.p., INAH alone = 100%
[7] = compound alone, 200 mg/kg i.p., corn oil = 100%

Cc1c(-c2cnccn2)ssc1=S [Oltipraz]
induction of enzymes involved in phase II reactions [1]: ability of inducing enzymes of phase II reactions | cancer suppression (cancers): can suppress lung and stomach cancers

NNC(=O)c1ccncc1 [INAH, isoniazid, reference compound]
Aniline hydroxylase, Amount (aniline hydroxylase): 1.453 nmol/min/mg protein | Aniline hydroxylase, Activity (aniline hydroxylase): 100% | Glutathion S-transferase, Amount [2, 5]: 2.008 nmol/min/mg protein | Glutathion S-transferase, Activity [2, 6]: 100% | p-Nitrophenol hydrolase, Amount [3]: 5.80 nmol/min/mg protein | p-Nitrophenol hydrolase, Activity [4]: 100%

c1ccc(CSc2cnccn2)cc1 [Example 2, 2-(benzylthio)pyrazine]
Aniline hydroxylase, Amount (aniline hydroxylase): 1.070 nmol/min/mg protein | Aniline hydroxylase, Activity (aniline hydroxylase): 74% | Glutathion S-transferase, Amount [2, 5]: 2.675 nmol/min/mg protein | Glutathion S-transferase, Activity [2, 6]: 133% | Glutathion S-transferase, Amount ([2]; compound alone, 200 mg/kg i.p.): 2.533 nmol/min/mg protein | Glutathion S-transferase, Activity [2, 7]: 147% | p-Nitrophenol hydrolase, Amount [3]: 4.52 nmol/min/mg protein | p-Nitrophenol hydrolase, Activity [4]: 78%

C=CC(C)Sc1cnccn1 (stereo not drawn) [Example 8]
Aniline hydroxylase, Amount (aniline hydroxylase): 0.659 nmol/min/mg protein | Aniline hydroxylase, Activity (aniline hydroxylase): 45% | inhibition of expression of aniline hydroxylase induced by INAH (aniline hydroxylase): superior inhibitory action | Glutathion S-transferase, Amount [2, 5]: 2.808 nmol/min/mg protein | Glutathion S-transferase, Activity [2, 6]: 140% | induction of expression of glutathione S-transferase when INAH is administered ([2]; INAH plus compound): strongly induce expression of enzyme | Glutathion S-transferase, Amount ([2]; compound alone, 200 mg/kg i.p.): 3.290 nmol/min/mg protein | increase of expression of glutathione S-transferase ([2]; compound alone, 200 mg/kg i.p.): ≥ 70% | Glutathion S-transferase, Activity [2, 7]: 181% | p-Nitrophenol hydrolase, Amount [3]: 2.33 nmol/min/mg protein | inhibition of expression of p-nitrophenol hydroxylase induced by INAH [3]: superior inhibitory action | p-Nitrophenol hydrolase, Activity [4]: 40% | suppression of enzyme (P450 2E1) expression induced by INAH (P450 2E1): strongest suppression

2(3)-tert-butyl-4-hydroxyanisole [butylhydroxyanisole]
induction of enzymes involved in phase II reactions [1]: shows an anti-cancer activity by inducing enzymes involved in phase II reactions

CC=CCSc1cnccn1 [Example 7, 2-(2-butenylthio)pyrazine]
Aniline hydroxylase, Amount (aniline hydroxylase): 0.712 nmol/min/mg protein | Aniline hydroxylase, Activity (aniline hydroxylase): 49% | inhibition of expression of aniline hydroxylase induced by INAH (aniline hydroxylase): superior inhibitory action | Glutathion S-transferase, Amount [2, 5]: 2.263 nmol/min/mg protein | Glutathion S-transferase, Activity [2, 6]: 113% | Glutathion S-transferase, Amount ([2]; compound alone, 200 mg/kg i.p.): 3.046 nmol/min/mg protein | increase of expression of glutathione S-transferase ([2]; compound alone, 200 mg/kg i.p.): ≥ 70% | Glutathion S-transferase, Activity [2, 7]: 177% | p-Nitrophenol hydrolase, Amount [3]: 2.33 nmol/min/mg protein | inhibition of expression of p-nitrophenol hydroxylase induced by INAH [3]: superior inhibitory action | p-Nitrophenol hydrolase, Activity [4]: 40%

C(=Cc1ccccc1)CSc1cnccn1 [Example 4, 2-(cinnamylthio)pyrazine]
Aniline hydroxylase, Amount (aniline hydroxylase): 0.972 nmol/min/mg protein | Aniline hydroxylase, Activity (aniline hydroxylase): 67% | Glutathion S-transferase, Amount [2, 5]: 2.683 nmol/min/mg protein | Glutathion S-transferase, Activity [2, 6]: 134% | Glutathion S-transferase, Amount ([2]; compound alone, 200 mg/kg i.p.): 2.892 nmol/min/mg protein | Glutathion S-transferase, Activity [2, 7]: 168% | p-Nitrophenol hydrolase, Amount [3]: 3.69 nmol/min/mg protein | p-Nitrophenol hydrolase, Activity [4]: 64%

c1coc(CSc2cnccn2)c1 [Example 5, 2-(furfurylthio)pyrazine]
Aniline hydroxylase, Amount (aniline hydroxylase): 0.972 nmol/min/mg protein | Aniline hydroxylase, Activity (aniline hydroxylase): 67% | Glutathion S-transferase, Amount [2, 5]: 3.029 nmol/min/mg protein | Glutathion S-transferase, Activity [2, 6]: 151% | induction of expression of glutathione S-transferase when INAH is administered ([2]; INAH plus compound): strongly induce expression of enzyme | Glutathion S-transferase, Amount ([2]; compound alone, 200 mg/kg i.p.): 2.996 nmol/min/mg protein | increase of expression of glutathione S-transferase ([2]; compound alone, 200 mg/kg i.p.): ≥ 70% | Glutathion S-transferase, Activity [2, 7]: 174% | p-Nitrophenol hydrolase, Amount [3]: 3.53 nmol/min/mg protein | p-Nitrophenol hydrolase, Activity [4]: 61%

C=CCSCC=C [allylsulfide, diallylsulfide]
cancer suppression (cancers): strongly suppress liver and colon cancers | suppression of cytochrome P-450 2E1 induced by pyrazine (cytochrome P-450 2E1; inventors' submitted paper): completely suppress cytochrome P-450 2E1 induced by the action of pyrazine | effect on cytochrome P-450 2E1 expression (cytochrome P-450 2E1): strongly inhibits the expression of cytochrome P-450 2E1

Cc1cc(C(C)(C)C)c(O)c(C(C)(C)C)c1 [butylhydroxytoluene, 3,5-ditert-butyl-4-hydroxytoluene]
induction of enzymes involved in phase II reactions [1]: shows a anti-cancer activity by inducing enzymes involved in phase II reactions

c1cnccn1 [pyrazine]
effect on cytochrome P-450 2E1 expression (cytochrome P-450 2E1): inducing cytochrome P-450 2E1

C=C(C)CCSc1cnccn1 [Example 6, 2-(3-methyl-3-butenylthio)pyrazine]
Aniline hydroxylase, Amount (aniline hydroxylase): 0.879 nmol/min/mg protein | Aniline hydroxylase, Activity (aniline hydroxylase): 60% | Glutathion S-transferase, Amount [2, 5]: 2.375 nmol/min/mg protein | Glutathion S-transferase, Activity [2, 6]: 118% | Glutathion S-transferase, Amount ([2]; compound alone, 200 mg/kg i.p.): 2.558 nmol/min/mg protein | Glutathion S-transferase, Activity [2, 7]: 148% | p-Nitrophenol hydrolase, Amount [3]: 3.25 nmol/min/mg protein | p-Nitrophenol hydrolase, Activity [4]: 56%

CC(C)=CCSc1cnccn1 [Example 3, 2-(3-methyl-2-butenylthio)pyrazine]
Aniline hydroxylase, Amount (aniline hydroxylase): 1.108 nmol/min/mg protein | Aniline hydroxylase, Activity (aniline hydroxylase): 76% | Glutathion S-transferase, Amount [2, 5]: 3.071 nmol/min/mg protein | Glutathion S-transferase, Activity [2, 6]: 153% | induction of expression of glutathione S-transferase when INAH is administered ([2]; INAH plus compound): strongly induce expression of enzyme | Glutathion S-transferase, Amount ([2]; compound alone, 200 mg/kg i.p.): 2.708 nmol/min/mg protein | Glutathion S-transferase, Activity [2, 7]: 157% | p-Nitrophenol hydrolase, Amount [3]: 4.23 nmol/min/mg protein | p-Nitrophenol hydrolase, Activity [4]: 73%
